From patent US7700108B2, “Tumor antigen protein and use thereof” (Dainippon Sumitomo Pharma Co., Ltd., priority 2002, dated 2010)
Where no end group is shown, it is not given here.

Test system: TcOS2000cl-303 (CTL) with 293-EBNA-B55 cells (HLA-B* 5502)
Assay: LDH release assay: reactivity of CTL TcOS2000cl-303 to peptide-pulsed 293-EBNA-B55 cells
Type: cell-based, human
Conditions: 293-EBNA-B55 cells pulsed for 1 hour with peptide, co-cultured with TcOS2000cl-303; FIG. 5
Procedure: The first screening involved the following procedures. A pool of about 100 cDNA clones ([…]) was introduced into 293-EBNA-B55 cells having been plated into a 96-well microplate at 8×10^4 cells/well by lipofection method (Lipofectamine 2000, Invitrogen). Pools of respective cDNA clones used for introduction were stored separately. Twenty-four-hour later, TcOS2000cl-303 cells (8×10^4) were added and cultivation continued for another 24 hours, when the cultured supernatant was recovered. The reactivity of CTL was evaluated by determining LDH released in the supernatant by cytotoxic effects using LDH Cytotoxicity Detection Kit (TAKARA BIO). […] As a result, the reactivity was detected in 20 wells. […] As a result, the reactivity was detected in 4 wells.
Antigen peptide regions that bind to HLA-B* 5502 was identified from various peptides synthesized on the basis of the amino acid sequence (SEQ ID NO: 2) of tumor antigen protein PBF using as an index the reactivity of TcOS2000cl-303. 293-EBNA-B55A cells (8×10^4) were pulsed for 1 hour with a peptide having an amino acid sequence (Cys Thr Ala Cys Arg Trp Lys Ala Cys Gln Arg, SEQ ID NO: 46) corresponding to the amino acid sequence at position […] of SEQ ID NO: 2, co-cultured with TcOS2000cl-303 cells (4×10^4) and the reactivity was assessed by LDH release assay in the same manner as that described in Example 2. […]

Sequence: CTACRWKACQR (cysteine pairing not given here) [SEQ ID NO: 46]
- reactivity of TcOS2000cl-303 (LDH release): reacted to peptide-pulsed 293-EBNA-B55 cells
